These results are taken from US20260327655A1, “SMALL-MOLECULE REGULATED ALTERNATIVE SPLICING” (priority 2023, published 2026).

The subject of assay [1] is RS1-10 minigene (Firefly Luciferase), HEK-293T cells. In words: Luciferase induction assay, RS1-10 with splice modulator compounds in HEK-293T cells. The following applies: Homo sapiens, 18 hours, n of 3, read-out: Mean fold-induction of luciferase (relative to vehicle control). It is filed as cell-based.
Assay [2] concerns RS1-10. In words: Dose-response profiling assay, RS1-10 Flp-In-293 cell line. The class given is cell-based. The following applies: 18 hours, FIGS. 9D-9F. The procedure:
Single-copy insertion of an switch construct and subsequent cell-line generation was performed in Flp-In-293 cells according to manufacturer's protocols. The RS1-10 sequence fused to a Firefly Luciferase gene was cloned into a Flp-In compatible pcDNA5/FRT expression vector with a CMV promoter and BGH polyadenylation signal. Resulting Flp-In cell line carried a single-copy expression cassette (RSwitch-controlled) integrated into the genome. The RS1-10 Flp-In cell line was cultured in DMEM+10% FBS, collected after trypsinization, and then dispensed into 96-well plates (cell culture-treated). Each well of the plate was seeded with 1.0×10^5 cells in 100 μL culture medium. Subsequently, either DMSO vehicle or a splice modulator compound at specified doses was added to the wells of the plate. Triplicate wells were used for each condition tested in the experiment. Plates were then incubated for 18 hours in a tissue culture incubator (5% CO2, 37° C.). Endpoint analysis was performed by adding 100 uL of a Luciferase substrate, such as Steady-Luc Firefly Luciferase substrate, to each well of the assay plate. The liquid contents of each was transferred to a 96-well plate, mixed again for 2 min on an orbital shaker, and incubated at room temperature for 5 min. Finally, the luminescent signal from each well was measured with a plate reader. Each plotted data point on a graph in a figure represents a mean of 3 wells+/−standard deviation normalized to vehicle controls. A nonlinear regression curve fit of the plotted data points was generated in graphing software.

The subject of assay [3] is RS1-10, NIH-3T3 cells. In words: RS1-10 performance in NIH-3T3 cells. The class given is cell-based, mouse. The following applies: CMV promoter, 18 hours, FIG. 10B. The procedure:
Human cell line HEK-293T cells or NIH-3T3 mouse fibroblast cell line cells were cultured in DMEM+10% FBS, collected after trypsinization, and then dispensed into 96-well plates (cell culture-treated). Each well of the plate was seeded with 1.0×10^5 cells in 100 μL culture medium. After a 1-hour incubation in the tissue culture incubator (5% CO2, 37 degrees C.), plasmid DNA was complexed with a transfection reagent, such as Lipofectamine 3000, and added to respective wells on the plate. Each well received an equivalent of 100 ng of plasmid DNA complexed with 0.15 μL Lipofectamine 3000. Triplicate wells were used for each condition tested in the experiment. The plasmid utilized in the experiments for HEK-293T cells and NIH-3T3 mouse fibroblast cells encoded a CMV promoter upstream of the RS1-10 construct that controlled the expression of a Firefly Luciferase gene followed by a SV40 polyadenylation signal. After a 10-minute incubation at room temperature, either DMSO vehicle or 24 A at specified doses was added to the wells of the plate. Plates were then incubated for 18 hours in a tissue culture incubator. Endpoint analysis was performed by adding 100 uL of a Luciferase substrate, such as Steady-Luc Firefly Luciferase substrate, to each well of the assay plate. […] Finally, the luminescent signal from each well was measured with a plate reader. […]

Assay [4] relates to RS1-10. In words: In vivo mouse study of RS1-10 activation (AAV-PHP.eB, bioluminescent imaging). More on the design: species or system C57BL/6 mice. Conditions: 10 mg/kg single oral gavage. As to the method: C57BL/6 mice underwent tail vein injection of 3.00E+11 vector (depicted in FIG. 11A) genomes/mouse AAV vector composed of a genome containing a cloned human Synapsin promoter driving the expression of a Firefly Luciferase gene. Expression of the luciferase gene was gated by the RS1-10 switch. The AAV vector utilized a brain-penetrant AAV-PHP.eB capsid (FIG. 11A). At approximately 3 weeks after AAV delivery, mice were either dosed with compound vehicle or 10 mg/kg 24 A as a single oral gavage. 6 hours after the oral dosing, mice were intraperitoneally administered D-Luciferin (150 mg/kg), anesthetized, and imaged with a bioluminescent imaging (BLI) system to analyze activation of RS1-10. Light flux from expressed Firefly Luciferase was measured from the whole body of each mouse as radiance and a brightfield image was also taken as an anatomical reference (FIG. 11B). […]
C57BL/6 mice underwent tail vein injection of 3.00E+11 vector genomes/mouse AAV vector composed of a genome containing a cloned human Synapsin promoter driving the expression of a Firefly Luciferase gene. […] Light flux from expressed Firefly Luciferase was measured from the whole body of each mouse as radiance and a brightfield image was also taken as an anatomical reference. […]

For `CCN1CC(c2ccc(-c3ccc(-c4ccc5nn(C)cc5c4)cc3O)nn2)C1` [Compound 24A, 2-[6-(1-ethylazetidin-3-yl)pyridazin-3-yl]-5-(2-methyl-2H-indazol-5-yl)phenol], the fold induction at 0.1 µM in assay [1] (RS1-10, 100 nM) stood at 74.1. Further, in assay [1] (RS1-10, 1,000 nM), the fold induction at 1 µM was 84. The “fold-induction of luciferase signal, dose response” value in assay [2] is “increase in fold-induction of luciferase signal with increasing concentrations”. For the same compound, in assay [3], the fold-induction of luciferase result was “increasing fold-induction of luciferase with increasing concentrations of 24 A”. The “light flux from the heads of mice (bioluminescent imaging)” value in assay [4] (6 hours post dose, ~3 weeks after AAV delivery, vs vehicle) is “Significant increases in light flux”. In assay [4] (7 days post dose), the “bioluminescent signal after drug washout” value is listed as “No significant signal was detected”.
